Measurements taken from ChEMBL document CHEMBL1201862, “PubChem BioAssay data set” (2004).
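Protocol summary: plate cells (96-well), add compound at 5 concentrations, incubate 48 h, interpolate endpoints linearly. GI50 is the concentration that inhibits growth by half.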 Calls of active or inactive are those of the source. No stated cut-off is given here; in the data, active = GI50 up to about 1.1 µM and inactive = higher.

Tests used:
Experiment in all cases: DTP human tumour cell line panel, 48 h
[1] = tested on: A549
[2] = tested on: SF-295
[3] = tested on: T47D
[4] = tested on: CCRF-CEM
[5] = tested on: MDA-MB-231
[6] = tested on: OVCAR-8
[7] = tested on: SF-268
[8] = tested on: M14
[9] = tested on: Hs-578T
[10] = tested on: SNB-19
[11] = tested on: SR
[12] = tested on: HOP-62
[13] = tested on: NCI-H460
[14] = tested on: DU-145
[15] = tested on: HL-60
[16] = tested on: SF-539
[17] = tested on: UACC-257
[18] = tested on: HT-29
[19] = tested on: MOLT-4
[20] = tested on: HCT-116
[21] = tested on: KM12
[22] = tested on: SN12C
[23] = tested on: UO-31
[24] = tested on: SW-620
[25] = tested on: NCI-H23
[26] = tested on: MDA-N
[27] = tested on: ACHN
[28] = tested on: LOX IMVI
[29] = tested on: SNB-75
[30] = tested on: IGROV-1
[31] = tested on: TK-10
[32] = tested on: NCI-H226
[33] = tested on: COLO 205
[34] = tested on: HCC 2998
[35] = tested on: MDA-MB-435
[36] = tested on: SK-OV-3
[37] = tested on: 786-0
[38] = tested on: RPMI-8226
[39] = tested on: U-251
[40] = tested on: SK-MEL-5
[41] = tested on: MCF7
[42] = tested on: OVCAR-4
[43] = tested on: SK-MEL-2
[44] = tested on: NCI/ADR-RES
[45] = tested on: BT-549
[46] = tested on: OVCAR-3
[47] = tested on: EKVX
[48] = tested on: UACC-62
[49] = tested on: NCI-H522
[50] = tested on: CAKI-1
[51] = tested on: OVCAR-5
[52] = tested on: PC-3
[53] = tested on: SK-MEL-28
[54] = tested on: HCT-15
[55] = tested on: Malme-3M
[56] = tested on: RXF 393
[57] = tested on: K562
[58] = tested on: A498
[59] = tested on: HOP-92

Measured: GI50

O=C1NCc2ccccc2S(=O)(=O)n2cccc21
inactive: [1] > 100 µM | [2] > 100 µM | [3] 50.7 µM | [4] > 100 µM | [5] > 100 µM | [6] > 100 µM | [7] > 100 µM | [8] > 100 µM | [9] > 100 µM | [10] > 100 µM | [11] 6.28 µM | [12] > 100 µM | [13] > 100 µM | [14] > 100 µM | [15] > 100 µM | [16] > 100 µM | [17] > 100 µM | [18] > 100 µM | [19] > 100 µM | [20] 63.1 µM | [21] > 100 µM | [22] > 100 µM | [23] > 100 µM | [24] > 100 µM | [25] > 100 µM | [26] > 100 µM | [27] > 100 µM | [28] > 100 µM | [29] > 100 µM | [30] > 100 µM | [31] > 100 µM | [32] > 100 µM | [33] > 100 µM | [34] > 100 µM | [35] > 100 µM | [36] > 100 µM | [37] > 100 µM | [38] > 100 µM | [39] > 100 µM | [40] > 100 µM | [41] > 100 µM | [42] > 100 µM | [43] 64.4 µM | [44] > 100 µM | [45] > 100 µM | [46] > 100 µM | [47] > 100 µM | [48] > 100 µM | [49] 85.7 µM | [50] > 100 µM | [51] > 100 µM | [52] > 100 µM | [53] > 100 µM | [55] > 100 µM
> 100 µM: [54]

CC(=S)N/C=C1/C(=O)C=C(C)OC1=O
> 100 µM: [54]
inactive: [1] > 100 µM | [2] > 100 µM | [3] > 100 µM | [4] > 100 µM | [5] > 100 µM | [6] > 100 µM | [7] > 100 µM | [8] > 100 µM | [9] > 100 µM | [10] > 100 µM | [12] > 100 µM | [13] > 100 µM | [14] > 100 µM | [15] > 100 µM | [16] > 100 µM | [17] > 100 µM | [18] > 100 µM | [19] > 100 µM | [20] > 100 µM | [21] > 100 µM | [22] > 100 µM | [23] > 100 µM | [24] > 100 µM | [25] > 100 µM | [26] > 100 µM | [27] > 100 µM | [28] > 100 µM | [29] 54.3 µM | [56] > 100 µM | [30] > 100 µM | [31] > 100 µM | [32] > 100 µM | [33] > 100 µM | [34] > 100 µM | [35] > 100 µM | [36] > 100 µM | [37] > 100 µM | [38] > 100 µM | [39] > 100 µM | [40] 90.2 µM | [41] > 100 µM | [57] > 100 µM | [42] > 100 µM | [43] > 100 µM | [44] > 100 µM | [45] > 100 µM | [46] > 100 µM | [47] > 100 µM | [48] > 100 µM | [49] > 100 µM | [50] > 100 µM | [51] > 100 µM | [58] > 100 µM | [52] > 100 µM | [59] > 100 µM

CC(=O)Oc1c2oc3ccc(Cl)cc3c(=O)c2c(O)c2ccsc12
> 100 µM: [54]
inactive: [1] > 100 µM | [2] > 100 µM | [4] 86.1 µM | [5] 28.2 µM | [6] > 100 µM | [7] > 100 µM | [8] > 100 µM | [9] 33.3 µM | [10] > 100 µM | [12] > 100 µM | [13] > 100 µM | [14] > 100 µM | [15] > 100 µM | [16] > 100 µM | [17] > 100 µM | [18] > 100 µM | [20] > 100 µM | [21] > 100 µM | [22] > 100 µM | [23] > 100 µM | [24] > 100 µM | [25] > 100 µM | [26] > 100 µM | [27] > 100 µM | [28] > 100 µM | [29] 52.4 µM | [56] > 100 µM | [31] 27.6 µM | [32] > 100 µM | [33] > 100 µM | [34] > 100 µM | [35] > 100 µM | [36] > 100 µM | [37] > 100 µM | [38] > 100 µM | [39] > 100 µM | [40] > 100 µM | [41] > 100 µM | [57] 60.7 µM | [42] > 100 µM | [43] > 100 µM | [44] > 100 µM | [45] 51.4 µM | [46] > 100 µM | [47] > 100 µM | [48] > 100 µM | [50] > 100 µM | [51] > 100 µM | [58] > 100 µM | [52] > 100 µM | [53] > 100 µM | [55] > 100 µM | [59] > 100 µM
active: [3] 0.132 µM
